Patent US20110250184A1, “METHODS FOR DETERMINING EFFICACY OF A THERAPEUTIC REGIMEN AGAINST DELETERIOUS EFFECTS OF CYTOTOXIC AGENTS IN HUMAN” (priority 2008, published 2011)

Legend:
DNA damage = experiment: Comet assay, DNA damage caused by irradiation of cells; type: cell-based
[1] = test system: apoptosis-specific signaling events; experiment: Signaling studies, apoptosis-specific signaling after radiation; type: cell-based; details: treatment prior to radiation exposure
Excerpt: To analyze and investigate the efficacy of a cytotoxic protective drug, biological assays were developed that assisted in determination of the mechanism of action of these drugs at the intracellular level. In the case of ON 01210.Na, certain components of cellular and DNA damage-sensing, repair, and apoptosis pathways were studied in more detail.

[2] = test system: white blood cells, platelets, hematocrit and hemoglobin levels; experiment: Hematology in irradiated rabbits; type: in vivo, New Zealand white rabbits
Experimental: Unlike in the mouse studies, clear evidence of improved repopulation of various hematologic cell lineages was not evident in these preliminary studies. Both solution and suspension formulations were tested.

CYP450 2C9 = CYP450 2C9 (Homo sapiens, UniProt P11712); type: in vitro ADME
Chain of CYP450 2C9 (P11712 whole entry): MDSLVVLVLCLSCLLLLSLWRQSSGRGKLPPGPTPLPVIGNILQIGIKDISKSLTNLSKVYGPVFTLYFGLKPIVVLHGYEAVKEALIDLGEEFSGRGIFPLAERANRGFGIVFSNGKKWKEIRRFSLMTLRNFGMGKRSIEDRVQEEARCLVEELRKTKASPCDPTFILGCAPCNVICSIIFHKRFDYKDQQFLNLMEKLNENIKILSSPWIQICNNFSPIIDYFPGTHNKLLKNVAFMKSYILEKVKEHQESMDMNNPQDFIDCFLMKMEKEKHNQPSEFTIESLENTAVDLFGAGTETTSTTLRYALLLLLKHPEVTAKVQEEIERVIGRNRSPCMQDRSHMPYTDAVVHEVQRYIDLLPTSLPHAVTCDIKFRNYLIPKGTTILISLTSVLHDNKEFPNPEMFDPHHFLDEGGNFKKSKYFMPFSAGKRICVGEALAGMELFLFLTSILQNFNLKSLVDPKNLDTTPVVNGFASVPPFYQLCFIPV
Experimental: (§1) Additional biochemical studies were performed to screen for potential secondary or non-specific activities. ON 01210.Na was subjected to in vitro primary screening across a broad panel of 67 radioligand receptor binding assays and five cytochrome P450 enzymes: 1A2, 2C9, 2C19, 3A4, and 2D6. […] Only one cytochrome assay, CYP450 2C9, in which the activity was […] 98%, yielded a response that was considered significant. Thus, as a preliminary screen for safety and selectivity profiling, no targets were identified.

jejunal crypt stem cells = experiment: Gastrointestinal tissue damage in irradiated mice; type: in vivo; details: pretreated prior to irradiation
[3] = test system: mice exposed to lethal doses of whole body ionizing radiation; experiment: In vivo survival studies in mice after lethal whole body radiation (30-day survival model)
Experimental: Since survival of animals after radiation exposure depends largely on the protection of the hematopoietic system, the effect of ON 01210.Na treatment on hematopoietic cell survival was investigated using various schedules before radiation exposure. The radioprotection of hematopoietic cells by ON 01210.Na was studied in an in vivo assay using a sub lethal dose of radiation. C3H/HEJ mice were treated with ON 01210.Na following various schedules in order to determine the optimal dose and schedule of ON 01210.Na for maximum protection of the hematopoietic system in mice.
In vivo survival studies in mice were designed to explore the effects of dose and schedule on survival, based on the well-established 30-day survival model, establish a dose reduction factor (DRF) for ON 01210.Na, compare two different formulations (suspension vs. solution) of ON 01210.Na; and show protection and recovery benefits of ON 01210.Na to the hematopoietic system and gastrointestinal tract of treated mice.
Two dose reduction factor (DRF) studies determined that the DRF for ON 01210.Na was 1.14 to 1.16.

[4] = test system: p53, p21, bax, c-abl and p73; experiment: Protein levels in cells in response to radiation exposure; type: cell-based
Excerpt: This reduction could be instrumental in decreased cell death and increased cell recovery in ON 01210.Na pretreated irradiated cells.

[5] = test system: 67 radioligand receptor binding assays; experiment: Panel of 67 radioligand receptor binding assays; details: in vitro primary screening
Experimental: as §1

O=C([O-])c1ccc(/C=C/S(=O)(=O)Cc2ccc(Cl)cc2)cc1.[Na+] [ON 01210.Na, E-4-Carboxystyryl-4-chlorobenzylsulfone sodium salt]
DNA damage caused by irradiation (Comet assays) (DNA damage): reduced the amount of DNA damage | level of apoptosis-specific signaling events [1]: reduced the level of apoptosis-specific signaling events | white blood cells, platelets, hematocrit and hemoglobin levels ([2]; 120 mg/kg at 24 hours and 15 minutes before lethal radiation): general protective trend | improved repopulation of hematologic cell lineages ([2]; preliminary studies): not evident | CYP450 2C9 activity, stimulation (CYP450 2C9): 98% | damage to the jejunal crypt stem cells (jejunal crypt stem cells): significantly less damage | protection against radiation lethality ([3]; 50 mg/kg to 500 mg/kg, p<0.05 vs. vehicle): dose-dependent protection | protection from LD50/30 whole body radiation dose ([3]; 500 mg/kg pretreatment): completely and reproducibly protected | mice protected (survival) ([3]; double injection, minus 24 hour and minus 15 minutes, prior to lethal ionizing radiation): 100% | efficacy of solution formulation ([3]; same dosing regimen, solution formulation vs suspension): similarly effective | mice protected (survival) ([3]; single injection at minus 15 minutes prior to lethal ionizing radiation): 100% | protein level of bax [4]: significantly reduce | protein level of c-abl [4]: significantly reduce | protein level of p21 [4]: significantly reduce | protein level of p53 [4]: significantly reduce | protein level of p73 [4]: significantly reduce | inhibition or stimulation of receptor binding [5]: No significant inhibition or stimulation
